Where a name gives a salt, the structure may show the parent alone.
What was measured:
Type in all cases: biochemical
[1] = target: T1, TYK2 (Homo sapiens, UniProt P29597); assay: TYK2 inhibition (Table 4)
T1 construct: made in house; host or cells: SF9 insect cells (baculovirus)
T1 sequence (P29597 873-1187): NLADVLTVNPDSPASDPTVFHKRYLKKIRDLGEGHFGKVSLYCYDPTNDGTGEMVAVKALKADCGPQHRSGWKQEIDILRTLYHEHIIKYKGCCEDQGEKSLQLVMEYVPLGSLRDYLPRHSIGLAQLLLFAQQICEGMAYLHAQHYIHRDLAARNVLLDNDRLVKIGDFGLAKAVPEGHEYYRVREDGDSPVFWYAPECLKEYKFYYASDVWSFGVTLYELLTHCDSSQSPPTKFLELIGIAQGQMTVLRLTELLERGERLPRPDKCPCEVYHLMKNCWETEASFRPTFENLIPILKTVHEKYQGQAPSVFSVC

[2] = target: T2, JAK1 (Homo sapiens, UniProt P23458); assay: JAK1 inhibition (Table 4); settings: read-out: JAK1 Ki
T2 construct: made in house; host or cells: SF9 insect cells (baculovirus)
T2 sequence (P23458 852-1154): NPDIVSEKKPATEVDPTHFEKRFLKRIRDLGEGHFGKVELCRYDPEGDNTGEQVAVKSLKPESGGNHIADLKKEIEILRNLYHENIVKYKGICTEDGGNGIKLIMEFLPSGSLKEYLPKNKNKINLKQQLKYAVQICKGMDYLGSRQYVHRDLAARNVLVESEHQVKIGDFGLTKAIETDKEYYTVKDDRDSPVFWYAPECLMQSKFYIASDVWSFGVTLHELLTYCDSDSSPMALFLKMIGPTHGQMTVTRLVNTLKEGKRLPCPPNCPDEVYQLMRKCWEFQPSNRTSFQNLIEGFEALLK

[3] = target: T3, JAK2 (Homo sapiens, UniProt O60674); assay: JAK2 inhibition (Table 4); settings: read-out: JAK2 Ki
T3 construct: made in house; host or cells: SF9 insect cells (baculovirus)
T3 sequence (O60674 812-1132): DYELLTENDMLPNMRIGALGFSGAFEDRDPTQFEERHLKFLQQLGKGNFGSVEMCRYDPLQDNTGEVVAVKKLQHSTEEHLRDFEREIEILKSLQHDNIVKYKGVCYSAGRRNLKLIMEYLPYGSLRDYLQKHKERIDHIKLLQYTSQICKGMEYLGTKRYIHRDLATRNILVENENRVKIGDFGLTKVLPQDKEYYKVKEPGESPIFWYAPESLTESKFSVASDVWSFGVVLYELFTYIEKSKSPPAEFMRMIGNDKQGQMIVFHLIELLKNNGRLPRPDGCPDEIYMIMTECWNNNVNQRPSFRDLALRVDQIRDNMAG

[4] = target: T4, JAK3 (Homo sapiens, UniProt P52333); assay: JAK3 inhibition (Table 4); settings: read-out: JAK3 Ki
T4 construct: made in house; host or cells: SF9 insect cells (baculovirus)
T4 sequence (P52333 783-1124): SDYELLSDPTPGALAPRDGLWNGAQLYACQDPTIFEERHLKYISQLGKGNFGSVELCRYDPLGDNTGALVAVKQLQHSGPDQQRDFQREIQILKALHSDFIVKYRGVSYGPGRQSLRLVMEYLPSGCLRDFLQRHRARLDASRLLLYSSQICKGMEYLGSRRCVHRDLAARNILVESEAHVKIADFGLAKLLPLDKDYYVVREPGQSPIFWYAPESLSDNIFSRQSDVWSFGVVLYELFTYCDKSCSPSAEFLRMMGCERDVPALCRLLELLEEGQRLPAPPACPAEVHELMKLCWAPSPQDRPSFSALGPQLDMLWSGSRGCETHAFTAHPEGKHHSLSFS

Row | Compound | Ki [1] | Ki [2] | Ki [3] | Ki [4]
1 | CS(=O)(=O)NCCc1nc2cnc3[nH]ccc3c2n1C1CCN(CCC#N)CC1 [Example 118, N-(2-{1-[1-(2-Cyano-ethyl)-piperidin-4-yl]-1,6-dihydro-1,2,3,5,6-tetraaza-as-indacen-2-yl}-ethyl)-methanesulfonamide] | 63.1 nM | 1.94 nM | 12 nM | 23.6 nM
2 | CC(=O)NCCc1nc2cnc3[nH]ccc3c2n1C1CCN(CCC#N)CC1 [Example 379, N-(2-{1-[1-(2-Cyano-ethyl)-piperidin-4-yl]-1,6-dihydro-1,3,5,6-tetraaza-as-indacen-2-yl}-ethyl)-acetamide] | 117 nM | 3.54 nM | 18 nM | 26.2 nM
3 | CC(C)(C)OC(=O)N1CCC[C@H]1C(=O)N1CCC(n2cnc3cnc4[nH]ccc4c32)CC1 [Example 144, (S)-2-[4-(6H-1,2,3,5,6-Tetraaza-as-indacen-1-yl)-piperidine-1-carbonyl]-pyrrolidine-1-carboxylic acid tert-butyl ester] | 3160 nM | 251 nM | 382 nM | 3520 nM
4 | Cc1ccnn1CCc1nc2cnc3[nH]ccc3c2n1C1CCN(CCC#N)CC1 [Example 410, 3-(4-{2-[2-(5-Methyl-pyrazol-1-yl)-ethyl]-6H-1,3,5,6-tetraaza-as-indacen-1-yl}-piperidin-1-yl)-propionitrile] | 315 nM | 24.9 nM | 81.6 nM | 244 nM
5 | CC(C)(O)[C@H]1CC[C@@H](n2cnc3cnc4[nH]ccc4c32)CC1 [Example 957, Cis-2-[4-(6H-1,3,5,6-Tetraaza-as-indacen-1-yl)-cyclohexyl]-propan-2-ol] | 174 nM | 50 nM | 60.2 nM | 210 nM
6 | O=S(=O)(c1cccnc1)N1CCC(n2cnc3cnc4[nH]ccc4c32)CC1 [Example 88, 1-[1-(Pyridine-3-sulfonyl)-piperidin-4-yl]-1,6-dihydro-1,3,5,6-tetraaza-as-indacene] | 65.9 nM | 8.98 nM | 10.6 nM | 407 nM
7 | COC(=O)NC1CCC(n2nnc3cnc4[nH]ccc4c32)C1 (racemic) [Example 621, Racemic trans [3-(6H-1,2,3,5,6-Pentaaza-as-indacen-1-yl)-cyclopentyl]-carbamic acid methyl ester] | 124 nM | 8.78 nM | 23.2 nM | 148 nM
8 | C[C@@H](O)c1nc2cnc3[nH]ccc3c2n1C1CCN(C2(CC#N)COC2)CC1 [Example 861, (3-{4-[2-((R)-1-Hydroxy-ethyl)-6H-1,3,5,6-tetraaza-as-indacen-1-yl]-piperidin-1-yl}-oxetan-3-yl)-acetonitrile] | 602 nM | 39.4 nM | 205 nM | 1670 nM
9 | COCCN(C)C(=O)NC1CCC(n2c(C)nc3cnc4[nH]ccc4c32)C1 (racemic) [Example 738, 1-(2-Methoxy-ethyl)-1-methyl-3-[3-(2-methyl-6H-1,3,5,6-tetraaza-as-indacen-1-yl)-cyclopentyl]-urea] | 351 nM | 11.6 nM | 49.1 nM | 80.9 nM
10 | CC(C)(C)OC(=O)N1CCC(N[C@H]2CC[C@H](n3cnc4cnc5[nH]ccc5c43)CC2)CC1 [Example 558, trans 4-[4-(6H-1,3,5,6-Tetraaza-as-indacen-1-yl)-cyclohexylamino]-piperidine-1-carboxylic acid tert-butyl ester] | 39.2 nM | 6.94 nM | 60.9 nM | 110 nM
11 | C[C@@H](O)c1nc2cnc3[nH]ccc3c2n1C1CCC(C#N)CC1 (stereo partly drawn) [Example 776, 4-[2-((R)-1-Hydroxy-ethyl)-6H-1,3,5,6-tetraaza-as-indacen-1-yl]-cyclohexanecarbonitrile] | 0.73 nM | 0.99 nM | 10.4 nM | 1.88 nM
12 | N#CCN1CCC[C@H]1C(=O)N1CCC(n2cnc3cnc4[nH]ccc4c32)CC1 [Example 146, {(S)-2-[4-(6H-1,2,3,5,6-Tetraaza-as-indacen-1-yl)-piperidine-1-carbonyl]-pyrrolidin-1-yl}-acetonitrile] | 1730 nM | 150 nM | 190 nM | 2770 nM
13 | C[C@@H](O)c1nc2cnc3[nH]ccc3c2n1[C@H]1CC[C@H](OCC#N)CC1 [Example 639, Trans {4-[2-((R)-1-hydroxy-ethyl)-6H-1,2,3,5,6-tetraaza-as-indacen-1-yl]-cyclohexyloxy}-acetonitrile] | 4.04 nM | 0.78 nM | 14.4 nM | 58.1 nM
14 | O=C(Cc1nc2cnc3[nH]ccc3c2n1C1CCCOC1)N1CCCC(O)C1 (racemic) [Example 982, 1-(3-Hydroxy-piperidin-1-yl)-2-[1-(tetrahydro-pyran-3-yl)-1,6-dihydro-1,3,5,6-tetraaza-as-indacen-2-yl]-ethanone] | 273 nM | 34.3 nM | 307 nM | 159 nM
15 | CC(C)(C#N)C(=O)N1CC[C@@H](n2cnc3cnc4[nH]ccc4c32)C1 [Example 186, 2,2-Dimethyl-3-oxo-3-[(R)-3-(6H-1,2,3,5,6-tetraaza-as-indacen-1-yl)-pyrrolidin-1-yl]-propionitrile] | 1500 nM | 220 nM | 167 nM | 3170 nM
16 | Cc1nc2cnc3[nH]ccc3c2n1C1CCN(C(C)C)CC1 [Example 547, 1-(1-Isopropyl-piperidin-4-yl)-2-methyl-1,6-dihydro-1,3,5,6-tetraaza-as-indacene] | 638 nM | 27.4 nM | 184 nM | 1410 nM
17 | Cc1nc2cnc3[nH]ccc3c2n1-c1ccc(C#N)cc1 [Example 183, 4-(2-Methyl-6H-1,2,3,5,6-tetraaza-as-indacen-1-yl)-benzonitrile] | 72.7 nM | 20.4 nM | 44.9 nM | 650 nM
18 | COCCNC1CCC(n2nnc3cnc4[nH]ccc4c32)C1 (racemic) [Example 618, Racemic trans (2-methoxy-ethyl)-[3-(6H-1,2,3,5,6-pentaaza-as-indacen-1-yl)-cyclopentyl]-amine hydrochloride] | 1440 nM | 138 nM | 446 nM | 942 nM
19 | c1ccc(CN2CCC[C@@H](n3nnc4cnc5[nH]ccc5c43)C2)cc1 [Example 18, 1-((R)-1-Benzyl-piperidin-3-yl)-1,6-dihydro-1,2,3,5,6-pentaaza-as-indacene] | 273 nM | 24.6 nM | 40.1 nM | 323 nM
20 | C[C@@H](O)c1nc2cnc3[nH]ccc3c2n1[C@@H]1CCNC1 [Example 687, (R)-1-((R)-1-Pyrrolidin-3-yl-1,6-dihydro-1,2,3,5,6-tetraaza-as-indacen-2-yl)-ethanol] | 834 nM | 167 nM | 1480 nM | 858 nM
21 | C[C@@H](O)c1nc2cnc3[nH]ccc3c2n1C1CCC(CC#N)CC1 (stereo partly drawn) [Example 743, {4-[2-((R)-1-Hydroxy-ethyl)-6H-1,3,5,6-tetraaza-as-indacen-1-yl]cyclohexyl}acetonitrile] | 1.23 nM | 0.59 nM | 3.68 nM | 14.1 nM
22 | O=S(=O)(C1CC1)N1CCC[C@@H](n2cnc3cnc4[nH]ccc4c32)C1 [Example 70, (R)-1-(1-Cyclopropanesulfonyl-piperidin-3-yl]-1,6-dihydro-1,3,5,6-tetraaza-as-indacene] | 68.9 nM | 12.5 nM | 15.1 nM | 38.6 nM
23 | C[C@@H](O)c1nc2cnc3[nH]ccc3c2n1[C@H]1CC[C@@H](n2cncn2)CC1 [Example 653, Cis (R)-1-[1-(4-[1,2,4]triazol-1-yl-cyclohexyl)-1,6-dihydro-1,2,3,5,6-tetraaza-as-indacen-2-yl]-ethanol] | 5.28 nM | 0.88 nM | 24.7 nM | 1.31 nM
24 | CCN1CCC(n2c(CCNS(C)(=O)=O)nc3cnc4[nH]ccc4c32)C(F)(F)C1 (racemic) [Example 804, N-{2-[1-(1-Ethyl-3,3-difluoro-piperidin-4-yl)-1,6-dihydro-1,3,5,6-tetraaza-as-indacen-2-yl]-ethyl}-methanesulfonamide] | 172 nM | 2.97 nM | 25.2 nM | 13.6 nM
25 | O=C([C@@H]1CC(F)(F)CN1)N1CCC(n2cnc3cnc4[nH]ccc4c32)CC1 [Example 250, ((S)-4,4-Difluoro-pyrrolidin-2-yl)-[4-(6H-1,3,5,6-tetraaza-as-indacen-1-yl)-piperidin-1-yl]-methanone] | 300 nM | 29 nM | 64.7 nM | 336 nM
26 | CCN1CCC(n2c(C)nc3cnc4[nH]ccc4c32)C(F)(F)C1 (racemic) [Example 531, 1-(1-Ethyl-3,3-difluoro-piperidin-4-yl)-2-methyl-1,6-dihydro-1,3,5,6-tetraaza-as-indacene] | 21.2 nM | 1.77 nM | 4.58 nM | 4.23 nM
27 | Cc1nc2cnc3[nH]ccc3c2n1C1CCC(NC(=O)N(C)CC(F)(F)F)CC1 (stereo not drawn) [Example 749, 1-methyl-3-[4-(2-methyl-6H 1,3,5,6-tetraaza-as-indacen-1-yl)-cyclohexyl]-1-(2,2,2-trifluoro-ethyl)-urea] | 177 nM | 2.83 nM | 15.8 nM | 8.96 nM
